Columns and labels:
male C57BL/6 mice = assay: Murine model of endotoxin induced uveitis; format: in vivo, mouse; conditions: 0.1 μg intravitreal co-injected with LPS; about 15 hours after endotoxin; FIG. 5
Experimental: The efficacy of locally applied Nalidixic acid as a potential treatment for uveitis was explored. Experimental uveitis was induced in male C57BL/6 mice (n=5 animals per group) by the intravitreal injection of the endotoxin lipopolysaccharide (LPS 0.5 ng/ml) co-injected with either vehicle (phosphate buffered saline) or Nalidixic acid at a final concentration of 0.1 μg into alternate eyes. The other eye acting as control. The inflammatory response in this model is characterised by invasion of inflammatory cells and in particular invasion of neutrophils into the retina peaks at approximately 15 hours after endotoxin treatment at which time the animals were culled. Retinas from the animals were dissected and digested into a single cell suspension. Cell numbers from retinal tissue were measured by fluorescence-activated cell sorting (FACS) analysis.

[1] = tested on: Human derived cord mast cells; assay: Inhibition of histamine release from human mast cells; format: cell-based; conditions: IgE challenged human cord derived mast cells, 5 min incubation; FIG. 1
Experimental: Protocol: Human derived cord mast cells were cultured using the following method. Commercially available CD34^+ stem cells were cultured for […] in StemSpan (StemCell Technologies, Grenoble, France) serum-free medium supplemented with 100 ng/ml human SCF, 50 ng/ml IL-6 and 1 ng/ml IL-3, and 100 μg/ml penicillin/streptomycin (Peprotech, London, UK). After eight weeks, cells were cultured in StemSpan with 10% FCS. The cells were passaged into new medium every week. Cells were used for experiments between 11 and 18 weeks following confirmation by microscopic examination, c-kit and FcRε1 staining (by FACS), of mast cell morphology. For assessment of drug effects, Nalidixic acid was incubated for 5 min with aliquots of 2×10^5 CDMCs (cord derived mast cells) cultured in 10% FCS medium. A commercially-available enzyme immunoassay was used to detect and quantify histamine released in the supernatant (SPI bio, Strasbourg, France). The assay was conducted following the manufacturer's standard protocols. A standard curve ranging from 0.39-50 nM histamine was prepared using the reagent provided and the optical density was then read within 60 min in a microplate reader (at 405 nm). In some cases, the total cell content of histamine was established by freeze thawing of cells prior to challenge.

[2] = tested on: Human cord derived mast cells; assay: Release of Annexin-A1 from human mast cells (ELISA); format: cell-based; conditions: increasing concentrations, conditioned medium, FIG. 3
Experimental: Human cord derived mast cells were cultured using the methodology described in Example 1. Anx-A1 protein levels in conditioned medium were determined by ELISA. Briefly, 96-well flat-bottomed ELISA plates (Greiner, Gloucestershire, UK) were coated with 1 μg anti-Anx-A1 mAb 1B in bicarbonate buffer (pH 9.6) and incubated overnight at 4° C. After washing in the bicarbonate buffer, potentially uncoated sites were blocked with 100 μL of PBS containing 1% BSA for 1 h at room temperature. Sample aliquots (100 μL) or Anx-A1 standard solutions (prepared in 0.1% Tween-20 in PBS; concentration ranging between 10 and 0.001 μg/mL) were added for 1 h at 37° C. After extensive washing in PBS/Tween-20, 100 μL of a polyclonal rabbit anti-human Anx-A1 serum (Zymed, Invitrogen, Paisley, UK; diluted 1:1000 in PBS/Tween-20) was added (1 h at 37° C.) prior to incubation with donkey anti-rabbit 1 gG conjugated to alkaline phosphatase (1:1000; Sigma). The colour was developed by addition of 100 μL p-nitrophenyl phosphate (1 mg/mL in bicarbonate buffer, pH 9.6). Absorbance was read at 405 nm (with a 620-nm reference filter) in a microplate reader (TitertekTM, Vienna, Austria). Anx-A1 levels in the study samples were read against the standard curve and expressed as ng/ml.

[3] = tested on: Human cord derived mast cells; assay: Inhibition of Prostaglandin D2 release from human mast cells; format: cell-based; conditions: IgE challenged human cord derived mast cells; FIG. 2
Experimental: Human cord derived mast cells were cultured using the methodology described in Example 1. A commercially-available enzyme immunoassay (Cayman Chemical, Michigan, USA) was used to detect and quantify PGD2 released in the supernatant. The assay was conducted following the manufacturer's standard protocols. A standard curve ranging from 78-10,000 pg/ml PGD2 was prepared using the reagent provided and the optical density was then read within 60 min in a microplate reader (at 405 nm).

Mice (Balb/C strain) = assay: Murine model of allergic conjunctivitis (ragweed pollen); format: in vivo, mouse; conditions: 40 μl of a 2% solution twice daily to the eye
Experimental: Mice (Balb/C strain) were sensitised to ragweed pollen by injection of the extract mixed with alum into the hind paw. A control group was immunised with alum alone. Five animals were used in each group.
Eleven days after the initial immunisation with ragweed pollen extract the mice were challenged daily with Ragweed pollen by application to the eye (150 mg/ml antigen) and dosed twice daily (prior and after challenge with ragweed extract) with either Phosphate buffered saline (PBS, control) or 40 μl of a 2% solution of Nalidixic acid. All applications were to the left eye with the right eye acting as a control.
Conjunctivitis was assessed on the 10th day 1 hour after the final application of the ragweed antigen. This assessment was performed by an operator unaware of the dosing protocol for the animals.
Clinical scores of each group were compared statistically using the non-parametric Kruskal-Wallis test with Dunns multiple comparison test correction applied (FIG. 4).
In addition, histological analysis of sections of the conjunctiva was used to assess the number of migrating eosinophils into the tissue, a key measure of the inflammatory process.

phosphatase PP2A = assay: Inhibition of the phosphatase PP2A; format: biochemical; conditions: statement in summary, no method or data given

## CCn1cc(C(=O)O)c(=O)c2ccc(C)nc21 [Nalidixic acid]
Male C57BL/6 mice
  invading neutrophils in retinal tissue (FACS): clear reduction in invading neutrophils
[1]
  inhibition of the inflammatory mediator histamine (% net histamine release): dose related inhibition
[2]
  Annexin-A1 released from human mast cells: increase
[3]
  inhibition of the inflammatory prostanoid PGD2 release: dose related inhibition
Mice (Balb/C strain); assessed 10th day, 1 hour after final ragweed challenge, FIG. 4
  clinical scores of conjunctivitis: significant attenuation of the development of conjunctivitis
Mice (Balb/C strain); p<0.001 vs immunised PBS control
  number of migrating eosinophils in conjunctival tissue (histology): no migrating eosinophils
Phosphatase PP2A
  inhibition of the phosphatase PP2A: potent inhibitors

— patent publication US20160051526A1, “The Local Treatment of Inflammatory Ophthalmic Disorders” (CRESSET BIOMOLECULAR DISCOVERY LTD, priority 2013, published 2016)
